Strand notation (5' to 3'): a small letter for the sugar, then the base; units joined by * are phosphorothioate-linked, units joined directly phosphodiester-linked; [ ] holds rarer units or linkages, { } end groups; capitals alone tell only the bases. k = constrained ethyl (cEt); [5mC] = 5-methylcytosine; d = 2'-deoxy (DNA)

The first series relates to Yap1 mRNA. Briefly: Antisense inhibition of human Yap1 in A-431 cells by cEt gapmers, single dose (Example 2, RTS4814). The conditions noted are these: A-431 cells, 5,000 cells per well, free uptake, 2,000 nM modified oligonucleotide, approx. 48 hours, RTS4814, normalized to RIBOGREEN; Table 4; asterisk (*) = targets amplicon region of primer probe set. In kind it is cell-based. The protocol:
Modified oligonucleotides were designed to target a Yap1 nucleic acid and were tested for their effect on Yap1 mRNA level in vitro. The modified oligonucleotides were tested in a series of experiments that had similar culture conditions. Cultured A-431 cells at a density of 5,000 cells per well were treated using free uptake with 2,000 nM of modified oligonucleotide. After a treatment period of approximately 48 hours, RNA was isolated from the cells and Yap1 mRNA levels were measured by quantitative real-time RTPCR. Human primer probe set RTS4814 was used to measure mRNA levels. Yap1 mRNA levels were normalized to total RNA content, as measured by RIBOGREEN®. Results are presented in the tables below as percent control of the amount of Yap1 mRNA relative to untreated control cells (% UTC). The modified oligonucleotides with percent control values marked with an asterisk (*) target the amplicon region of the primer probe set. Additional assays may be used to measure the potency and efficacy of the modified oligonucleotides targeting the amplicon region.
The newly designed modified oligonucleotides in the Tables below were designed as 3-10-3 cEt gapmers. The gapmers are 16 nucleosides in length, wherein the central gap segment comprises of ten 2′-deoxynucleosides and is flanked by wing segments on the 5′ direction and the 3′ direction comprising three nucleosides each. Each nucleoside in the 5′ wing segment and each nucleoside in the 3′ wing segment has a cEt sugar modification. The internucleoside linkages throughout each gapmer are phosphorothioate (P═S) linkages. All cytosine residues throughout each gapmer are 5-methylcytosines.
“Start site” indicates the 5′-most nucleoside to which the gapmer is targeted in the human gene sequence. “Stop site” indicates the 3′-most nucleoside to which the gapmer is targeted human gene sequence. […] Activity ofthe modified oligonucleotide may be defined in a different experiment.
On to “716379 (k[5mC]*k[5mC]*kA*dG*dA*dA*dG*dA*dT*dG*dT*d[5mC]*dT*kT*kT*kG; antisense) [Compound 716379]”, for which the “YAP1 (% UTC)” value amounted to 123 % UTC.
Turning to “716382 (kA*kG*k[5mC]*dA*dT*dG*dG*d[5mC]*d[5mC]*dT*dT*d[5mC]*d[5mC]*kT*kG*kG; antisense) [Compound 716382]”, the “YAP1 (% UTC)” value was determined as 73 % UTC.
The same measure, in the same setting: as for “716385 (kT*kT*k[5mC]*d[5mC]*d[5mC]*dA*dT*d[5mC]*d[5mC]*dA*dT*d[5mC]*dA*kG*kG*kA; antisense) [Compound 716385]”, the figure is 87 % UTC; as for “716388 (kA*kG*kA*dG*dG*dT*dG*dG*dT*d[5mC]*dT*dT*dG*kT*kT*k[5mC]; antisense) [Compound 716388]”, 55 % UTC; as for “716391 (kG*kG*kA*dG*d[5mC]*dA*d[5mC]*dT*d[5mC]*dT*dG*dA*d[5mC]*kT*kG*kA; antisense) [Compound 716391]”, 44 % UTC.
For the substance “716394 (kG*kT*kT*dG*d[5mC]*dT*dG*d[5mC]*dA*dG*dT*d[5mC]*dG*k[5mC]*kA*kT; antisense) [Compound 716394]”, the “YAP1 (% UTC)” value stood at 120 % UTC.
On to “716397 (kG*kG*k[5mC]*d[5mC]*dT*d[5mC]*dA*d[5mC]*d[5mC]*dT*dG*d[5mC]*d[5mC]*kG*kA*kA; antisense) [Compound 716397]”, for which the “YAP1 (% UTC)” value is on record as 88 % UTC.
With “716400 (kT*kA*kA*d[5mC]*dT*d[5mC]*d[5mC]*dT*dG*dA*d[5mC]*dA*dT*kT*kT*kT; antisense) [Compound 716400]”, the “YAP1 (% UTC)” value was 106 % UTC.
Turning to “716403 (k[5mC]*k[5mC]*kG*dG*dG*dA*dG*dA*dA*dG*dA*d[5mC]*dA*k[5mC]*kT*kG; antisense) [Compound 716403]”, the “YAP1 (% UTC)” value was 110 % UTC.
Consider “716406 (kA*k[5mC]*kT*d[5mC]*dT*d[5mC]*dA*dT*d[5mC]*dT*d[5mC]*dG*dA*kG*kA*kG; antisense) [Compound 716406]”, for which the “YAP1 (% UTC)” value stood at 117 % UTC.
Turning to “716409 (k[5mC]*kA*kG*dG*dA*dA*dG*dT*d[5mC]*dA*dT*d[5mC]*dT*kG*kG*kG; antisense) [Compound 716409]”, the “YAP1 (% UTC)” value is on record as 99 % UTC.
“716412 (kG*kT*kA*dG*dT*d[5mC]*dT*dG*dG*dG*dA*dA*dA*k[5mC]*kG*kG; antisense) [Compound 716412]”: the “YAP1 (% UTC)” value was determined as 41 % UTC.
In the case of “716415 (kA*kG*k[5mC]*dT*d[5mC]*d[5mC]*dT*d[5mC]*dT*d[5mC]*d[5mC]*dT*dT*k[5mC]*kT*kA; antisense) [Compound 716415]”, the “YAP1 (% UTC)” value came out at 90 % UTC.
For “716418 (k[5mC]*k[5mC]*kT*dG*dA*dG*dG*dG*d[5mC]*dT*d[5mC]*dT*dA*kT*kA*kA; antisense) [Compound 716418]”, the “YAP1 (% UTC)” value was 75 % UTC.
The same measure, in the same setting: as for “716421 (kT*kA*kT*dT*dA*dG*d[5mC]*d[5mC]*dT*dG*dA*dA*dA*kA*k[5mC]*kT; antisense) [Compound 716421]”, the figure is 86 % UTC.

The same series, now with this note: Table 5; A-431 cells, 5,000 cells per well, free uptake, 2,000 nM modified oligonucleotide, approx. 48 hours; RTS4814; normalized to RIBOGREEN; Yap1 mRNA relative to untreated control cells.
For “716380 (kT*kT*kA*dA*dG*dA*dA*dG*dT*dA*dT*d[5mC]*dT*k[5mC]*kT*kG; antisense) [Compound 716380]”, the “YAP1 (% UTC)” value is reported as 54 % UTC.
Consider “716383 (kT*k[5mC]*kA*dT*d[5mC]*dA*dT*dA*dT*dT*d[5mC]*dT*dG*k[5mC]*kT*kG; antisense) [Compound 716383]”, for which the “YAP1 (% UTC)” value turned out to be 98 % UTC.
The same measure, in the same setting: the value for “716386 (kA*kT*kT*dT*d[5mC]*dT*d[5mC]*d[5mC]*dA*dT*d[5mC]*d[5mC]*dT*kG*kA*kG; antisense) [Compound 716386]” was 60 % UTC; that for “716389 (kA*kG*k[5mC]*d[5mC]*dT*dT*dG*dG*dG*dT*d[5mC]*dT*dA*kG*k[5mC]*k[5mC]; antisense) [Compound 716389]” was 93 % UTC.
Turning to “716392 (k[5mC]*kT*kG*d[5mC]*d[5mC]*dA*d[5mC]*d[5mC]*d[5mC]*dA*dT*dG*dA*k[5mC]*kG*k[5mC]; antisense) [Compound 716392]”, the “YAP1 (% UTC)” value worked out at 95 % UTC.
With “716395 (kG*k[5mC]*k[5mC]*dG*d[5mC]*dA*dG*d[5mC]*d[5mC]*dT*d[5mC]*dT*d[5mC]*k[5mC]*kT*kT; antisense) [Compound 716395]”, the “YAP1 (% UTC)” value worked out at 92 % UTC.
For the substance “716398 (kT*kA*kT*dT*d[5mC]*d[5mC]*dG*d[5mC]*dA*dT*dT*dG*d[5mC]*k[5mC]*kT*kG; antisense) [Compound 716398]”, the “YAP1 (% UTC)” value amounted to 70 % UTC.
In the case of “716401 (kA*kA*k[5mC]*dT*dG*dG*d[5mC]*dT*dA*d[5mC]*dG*d[5mC]*dA*kG*kG*kG; antisense) [Compound 716401]”, the “YAP1 (% UTC)” value turned out to be 92 % UTC.
With “716404 (k[5mC]*kG*kT*d[5mC]*dA*dT*dT*dG*dT*dT*d[5mC]*dT*d[5mC]*kA*kA*kT; antisense) [Compound 716404]”, the “YAP1 (% UTC)” value turned out to be 63 % UTC.
As for “716407 (k[5mC]*kT*kT*dA*dG*dT*d[5mC]*d[5mC]*dA*d[5mC]*dT*dG*dT*k[5mC]*kT*kG; antisense) [Compound 716407]”, the “YAP1 (% UTC)” value is listed as 35 % UTC.
For the substance “716410 (kG*kT*kA*dT*d[5mC]*dA*d[5mC]*d[5mC]*dT*dG*dT*dA*dT*k[5mC]*k[5mC]*kA; antisense) [Compound 716410]”, the “YAP1 (% UTC)” value is on record as 52 % UTC.
The same measure, in the same setting: the value for “716413 (kT*k[5mC]*k[5mC]*dA*dA*dG*dG*dT*d[5mC]*d[5mC]*dA*d[5mC]*dA*kT*kT*kT; antisense) [Compound 716413]” was 79 % UTC.
The same measure, in the same setting: the value for “716416 (kA*kA*kG*dG*dA*dT*dG*dT*d[5mC]*dA*dG*dA*dA*k[5mC]*kT*k[5mC]; antisense) [Compound 716416]” was 45 % UTC; that for “716419 (kT*kT*kT*d[5mC]*d[5mC]*dG*dG*dT*dG*d[5mC]*dA*dT*dG*kT*kG*kT; antisense) [Compound 716419]” was 36 % UTC.

Still in this series, the particulars now being: Table 6; A-431 cells, 5,000 cells per well, free uptake, 2,000 nM modified oligonucleotide, approx. 48 hours; RTS4814; normalized to RIBOGREEN; Yap1 mRNA relative to untreated control cells.
In the case of “716381 (kT*kG*kT*d[5mC]*dT*dG*dA*dT*d[5mC]*dG*dA*dT*dG*kT*kG*kA; antisense) [Compound 716381]”, the “YAP1 (% UTC)” value stood at 35 % UTC.
Regarding “716384 (kA*kG*kG*dA*d[5mC]*d[5mC]*dT*dG*dA*dA*dG*d[5mC]*d[5mC]*kG*kA*kG; antisense) [Compound 716384]”, the “YAP1 (% UTC)” value is on record as 71 % UTC.
Consider “716387 (kT*kA*kT*dG*dG*dT*dT*dT*dA*dT*dA*dT*dA*kG*kT*kA; antisense) [Compound 716387]”, for which the “YAP1 (% UTC)” value was 33 % UTC.
The same measure, in the same setting: as for “716390 (kT*k[5mC]*kT*d[5mC]*dT*dG*dG*dT*dT*d[5mC]*dA*dT*dG*kG*k[5mC]*kA; antisense) [Compound 716390]”, the figure is 66 % UTC; as for “716393 (kT*kT*kG*d[5mC]*dT*dG*d[5mC]*dT*dG*dG*dT*dT*dG*kG*kA*kG; antisense) [Compound 716393]”, 46 % UTC.
On to “716396 (k[5mC]*kA*kG*dT*dT*d[5mC]*dT*dT*dG*d[5mC]*dT*dG*dT*kT*kT*k[5mC]; antisense) [Compound 716396]”, for which the “YAP1 (% UTC)” value is listed as 123 % UTC.
Regarding “716399 (kA*kA*kT*dT*dT*dG*d[5mC]*dT*dG*dT*dG*d[5mC]*dT*kG*kG*kG; antisense) [Compound 716399]”, the “YAP1 (% UTC)” value was 40 % UTC.
Regarding “716402 (kA*kT*kT*dT*dT*dG*dA*dG*dT*d[5mC]*d[5mC]*d[5mC]*dA*k[5mC]*k[5mC]*kA; antisense) [Compound 716402]”, the “YAP1 (% UTC)” value is 85 % UTC.
Same read-out and setting: as for “716405 (kT*kG*kT*dT*dA*dA*dG*dG*dA*dA*dA*dG*dG*kA*kT*k[5mC]; antisense) [Compound 716405]”, the figure is 149 % UTC.
As to “716408 (k[5mC]*kA*k[5mC]*dT*dG*dT*dA*dG*d[5mC]*dT*dG*d[5mC]*dT*k[5mC]*kA*kT; antisense) [Compound 716408]”, the “YAP1 (% UTC)” value is 54 % UTC.
With “716411 (kT*k[5mC]*kT*dG*d[5mC]*dT*dG*dT*dG*dA*dG*dG*dG*k[5mC]*kA*kG; antisense) [Compound 716411]”, the “YAP1 (% UTC)” value is recorded as 102 % UTC.
Still for that read-out and setting: as for “716414 (kG*kT*kT*d[5mC]*dA*dT*dT*d[5mC]*d[5mC]*dA*dT*d[5mC]*dT*k[5mC]*k[5mC]*kT; antisense) [Compound 716414]”, the figure is 59 % UTC.
For the substance “716417 (kT*kG*kT*dA*dA*dG*dA*dA*dA*dG*d[5mC]*dT*dT*kT*k[5mC]*kT; antisense) [Compound 716417]”, the “YAP1 (% UTC)” value was found to be 78 % UTC.
With “716420 (k[5mC]*kA*kA*d[5mC]*dT*dG*dG*d[5mC]*dT*dT*dA*dT*dG*kG*kA*kA; antisense) [Compound 716420]”, the “YAP1 (% UTC)” value worked out at 50 % UTC.

For the origin of these results see US11214803B2, “Modulators of YAP1 expression” (Ionis Pharmaceuticals, Inc., priority 2019, dated 2022).
